What all share (assay): DTP human tumour cell line panel, 48 h
Test [1] has as its system COLO 205 colon.
In test [2] the test system is DU-145 prostate.
Test [3] concerns HL-60(TB) leukemia.
Test [4] concerns MCF7 breast.
The test system of test [5] is NCI-H23 lung.
The test system of test [6] is RPMI-8226 leukemia.
Test [7] deals with SK-MEL-28 melanoma.
Test [8] has as its system SK-OV-3 ovarian.
Test [9] concerns SN12C renal.
In test [10] the test system is U251 CNS.

The structures appear in SMILES notation.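 Test compounds were applied to cells in 96-well plates for 48 hours at 5 doses. GI50: concentration for 50% inhibition of growth. TGI: total growth inhibition.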

Consider eight compounds from PubChem BioAssay (NCI).

Regarding `C/C(=N\O)[C@H]1CC[C@@]2(C)[C@@H]3CC[C@H]4C(C)(C)/C(=N/O)CC[C@@]45CC35CC[C@]12C` (some centres undefined), the GI50 in [1] is 5.75 µM; in test [2] it was 2.85 µM; in [3], 1.62 µM; in test [4] it was 5.82 µM; in test [5] it was 4.96 µM; in test [6], 0.696 µM. In addition, the GI50 in test [7] is 4.34 µM; in [8], 6.18 µM; in [9], 6.58 µM; in test [10], 3.51 µM. Besides, the total growth inhibition concentration (TGI) was greater than 16.7 µM in test [1]; 6.2 µM in test [2]; greater than 16.7 µM in test [3]; greater than 16.7 µM in test [4]; greater than 16.7 µM in test [5]; 6.17 µM in [6]. In addition, the TGI in test [7] is 14.2 µM; in test [8] it was greater than 16.7 µM; in test [9], greater than 16.7 µM; in test [10], 6.81 µM.

As for `COc1ccc2c(c1)c(-c1cc(-c3cn(C)c4ccc(OC)cc34)[nH]n1)cn2C`, the GI50 in test [1], in test [2], in [3], in [4], in test [5] and in test [6] was greater than 100 µM in each case. The GI50 in [7], in [8], in [9] and in test [10] was greater than 100 µM throughout. Besides, the TGI in [1], in [2], in test [3], in test [4], in test [5] and in test [6] was greater than 100 µM in each case. Besides, the TGI in [7], in test [8], in test [9] and in test [10] was greater than 100 µM throughout.

Turning to `NCCn1c2c(c3ccccc3c1=O)C(=O)c1ccccc1-2`, the GI50 in [1] was 0.605 µM; in test [3], 0.162 µM; in test [4] it was 0.292 µM; in [5], 0.237 µM; in test [6] it was 0.338 µM; in test [7], 1.46 µM. The GI50 in test [8] was 0.528 µM; in [9], 0.266 µM; in [10], 0.544 µM. In addition, the TGI worked out at 3.99 µM in [1]; 2.58 µM in [2]; 0.611 µM in test [3]; 12.6 µM in test [4]; 1.86 µM in test [5]; 1.5 µM in test [6]. Moreover, the TGI in test [7] is 3.14 µM; in [8], 2.55 µM; in test [9] it was 2.13 µM; in test [10], 3.59 µM.

As for `Cc1nc2cc(Nc3nc(Nc4ccc(F)cc4)nc(-c4ccc(Cl)cc4)n3)ccc2n1Cc1ccccc1`, the GI50 in [1] was 3.17 µM; in [2] it was 23.4 µM; in test [3], 3.28 µM; in test [4], 3.1 µM; in [5] it was 14.7 µM; in [6], 2.62 µM. Also, the GI50 in [7] is 8.63 µM; in [8], 10.9 µM; in test [9] it was 46.4 µM; in test [10], 12.5 µM. Further, the TGI in [1] is 59.8 µM; in test [2] it was greater than 100 µM; in test [3] it was greater than 100 µM; in [4] it was greater than 100 µM; in test [5], greater than 100 µM; in [6], greater than 100 µM. Further, the TGI in test [7], in [8], in [9] and in test [10] was greater than 100 µM each time.

In the case of `C/C(N=NC(=S)N1CCCCCC1)=C1\C=CC=CN1O`, the concentration for total growth inhibition (TGI) in test [1] is 55.2 µM; in test [2], greater than 100 µM; in [3], 1.74 µM; in [4], greater than 100 µM; in test [5], greater than 56.2 µM; in test [6] it was 11.1 µM. Moreover, the TGI was greater than 96.3 µM in [7], 98.2 µM in [8], greater than 100 µM in test [9] and greater than 100 µM in test [10].

As for `COc1ccc(-c2nn3ncccc3c2-c2ccnc(Nc3cccc(C(F)(F)F)c3)n2)cc1`, the GI50 in [1] was 17 µM; in [2], 12.1 µM; in test [3] it was 8.74 µM; in test [4], 7.42 µM; in [5] it was 7.99 µM; in test [6], 7.67 µM. Besides, the GI50 is 16.7 µM in test [7], 7.76 µM in [8], 8.03 µM in test [9] and 11.6 µM in [10]. The total growth inhibition concentration (TGI) in test [1], in [2], in [3], in test [4], in [5] and in [6] was greater than 25 µM each time. The concentration for total growth inhibition (TGI) in test [7], in test [8], in [9] and in [10] was greater than 25 µM throughout.

Consider `Cc1cc(Nc2cc(N3CCN(C)CC3)nc(C#Cc3ccccc3)n2)n[nH]1`, for which the GI50 is 1.69 µM in test [1]; 4.18 µM in test [2]; 2.52 µM in test [3]; 2.31 µM in [4]; 3.25 µM in test [5]; 12.6 µM in [6]. Also, the GI50 in [7] is 5.05 µM; in test [8], 2.16 µM; in [9] it was 2.4 µM; in test [10] it was 3.52 µM. The TGI in [1] amounted to 4.62 µM; in test [2] it was 18.2 µM; in test [3] it was 14.8 µM; in test [4], 13.1 µM; in test [5], 18.5 µM; in test [6], 59.3 µM. Moreover, the TGI in [7] came to 18.3 µM; in test [8], 13.2 µM; in test [9], 14.2 µM; in test [10], 16.9 µM.

For the compound `NC(=O)c1c(NC(=O)c2cccc(C(F)(F)F)c2)sc2c1CCC(=O)C2`, the GI50 in test [1] is 0.437 µM; in test [2], 3.73 µM; in [3] it was 0.442 µM; in [4], 0.203 µM; in test [5] it was 0.317 µM; in test [6], 0.127 µM. Besides, the GI50 in test [7] was 1 µM; in test [8], 2.8 µM; in test [9] it was 0.392 µM; in [10], 0.307 µM. Further, the TGI is 1.8 µM in test [1]; greater than 100 µM in test [2]; 6.2 µM in [3]; greater than 100 µM in test [4]; 4.29 µM in test [5]; 0.745 µM in test [6]. Besides, the TGI was 15.2 µM in test [7], 8.39 µM in [8], greater than 100 µM in [9] and 16.6 µM in test [10].

Broadly, the GI50 is the concentration that inhibits growth by half. One may read the TGI as the concentration at which net growth stops. Read a low TGI as greater sensitivity of the cells.
